Experimental data as given in a melting point compilation (Tetko et al.; mined from patent text by program, amines drawn as free bases though some values may be those of a salt).

First: COc1ccc(OC)c(S(=O)(=O)NC(=O)C(C)Br)c1 (stereo unspecified)
Second: COc1ccc(S(=O)(=O)N(Cc2ccccc2)[C@H](CC(C)C)C(=O)NO)cc1
The melting point of the first is higher: 116 to 118 °C for the first, 48 to 52 °C for the second.

First: Cc1ccc(C(=O)Nc2ccc(C)c(-c3nc(OC(C)C)nc4c3CNC(=O)N4c3c(F)cccc3F)c2)cc1F
Second: CNC(=O)c1cccc(NC(=O)COc2ccc3ccccc3c2)c1
The melting point of the first is higher: 254 to 255 °C for the first, 174 °C for the second.

Compared with `CN1C(=O)CC2(CNC(=O)C2)C1=O` (stereo unspecified), `CN1C(=O)C(c2cccc(Br)c2)(c2c[nH]c(C=O)c2)N=C1N` (stereo unspecified) is lower in melting point: 201 to 204 °C for the first, 142 to 151 °C for the second.

First: Cc1nccn1Cc1cnn(-c2ccc(Cl)c(Cl)c2)c1
Second: Cc1c(SCCCSCc2ccncc2)ccnc1CNc1ncncc1Cl
The melting point of the first is higher: 176 to 177 °C for the first, 148 to 149 °C for the second.

Compared with `CC(=O)c1cccc(Oc2ncccc2OCCCc2ccncc2)c1`, `CN(C)CC(=O)N(C)c1cccc(-c2ccnc3c(C(=O)c4ccccc4)cnn23)c1` is higher in melting point: 117 to 119 °C for the first, 166 to 168 °C for the second.

First: CCOc1cc([N+](=O)[O-])c(N)cc1C(=O)OC
Second: COC(=O)c1ccc[nH]c1=O
The melting point of the first is higher: 156 to 157 °C for the first, 148 to 151 °C for the second.

Compared with `O=C(Nc1cc(Cl)cc(Cl)c1)c1cc(I)ccc1O`, `CN1C(C(=O)Nc2ccccc2)=C(O)c2ccc3ccccc3c2S1(=O)=O` is higher in melting point: 244 to 245 °C for the first, 273 to 274 °C for the second.

Compared with `C=C(CC)C(=O)c1ccc(OCCCC(=O)O)c(Cl)c1Cl`, `CC(C)(C)CC(=O)c1c(-c2ccc3c(Br)c(OCC(=O)O)ccc3c2)sc2ccccc12` is higher in melting point: 87 to 89 °C for the first, 206 to 207 °C for the second.

First: O=C(O)CC1CCCc2c1n(Cc1ccc(Cl)cc1)c1c(F)cc(F)cc21 (stereo unspecified)
Second: CN(C)C1(c2cccc(F)c2)CCC(CC(=O)NCCCc2ccccc2)CC1 (stereo unspecified)
The melting point of the first is higher: 130 to 131 °C for the first, 119 to 122 °C for the second.

First: CCc1cnc2c(c1)ON(C(C)(C(N)=O)C(C)C)O2 (stereo unspecified)
Second: CCOCc1nc2c(N)nc3ccccc3c2n1CC(C)(C)C(N)=O
The melting point of the first is lower: 114 to 117 °C for the first, 241 to 243 °C for the second.

First: CC(C)(C)OC(=O)C1CCC(c2ccco2)N1C(=O)OC(C)(C)C (mixture of isomers)
Second: CC(CSC(=O)c1ccco1)C(=O)N1CCCC1C(=O)O (mixture of isomers)
The melting point of the first is lower: 70 °C for the first, 132 to 140 °C for the second.

Compared with `O=c1cc(-c2ccc(OCc3ccccc3)c(OCc3ccccc3)c2)oc2ccc(OCC3CO3)cc12` (stereo unspecified), `O=c1c2cc3ccccc3cc2nc(CSc2ncnc3[nH]cnc23)n1-c1ccccc1Cl` is higher in melting point: 147 to 149 °C for the first, 248 to 254 °C for the second.

Compared with `CCOC(=O)N1CCc2cc(S(=O)(=O)n3cc(-c4ccccc4)[nH]c3=O)ccc21`, `OCCc1c(-c2ccccc2)[nH]c2nccnc12` is lower in melting point: 214 to 216 °C for the first, 201 to 202 °C for the second.

First: Cc1c(Cl)ccc2c1N=C(c1ccncc1)OC2c1ccc(Br)cc1 (stereo unspecified)
Second: Cc1cc(-c2ccc(C(F)(F)F)cc2)cc(-c2nc(-c3cccc(S(N)(=O)=O)c3)cs2)n1
The melting point of the first is lower: 169 to 170 °C for the first, greater than 250 °C for the second.

Compared with `COc1nc(C)cnc1NS(=O)(=O)c1cccnc1-c1ccc(NC(C)C)cc1`, `Cc1oc(-c2ccccc2)nc1COc1ccc(CCCCCBr)cc1` is lower in melting point: 105 to 107 °C for the first, 58 to 59 °C for the second.

Compared with `COc1ccc(C(=O)OC2C(OC(C)=O)C=C(C)C(=O)CC2(C)C)cc1` (stereo unspecified), `CC12C=CC(=O)C=C1CCC1C2=CCC2(C)C(C(=O)CCl)=CCC12` (stereo unspecified) is higher in melting point: 78 to 80 °C for the first, 136 to 138 °C for the second.

First: CC(C)(C)C(O)(COc1ccc(Cl)cc1)c1cncnc1 (stereo unspecified)
Second: CC(C#N)(C(O)c1ccc(Cl)cc1Cl)n1cncn1 (stereo unspecified)
The melting point of the first is higher: 172 to 174 °C for the first, 164 to 168 °C for the second.

`CC1(c2cccc(NS(C)(=O)=O)c2)C2CN(C(=O)CCc3cccs3)CC21` (stereo unspecified) and `O=C(Nc1ccccc1)N1CC2CCC(C1)O2` cannot be ordered by melting point: 184 °C for the first, 184 to 186 °C for the second.

Compared with `O=C(O)c1[nH]c2ccc(Cl)cc2c1S(=O)(=O)c1nccs1`, `CCOC(=O)CN(CP(=O)(OSc1cc(Cl)ccc1Cl)OSc1cc(Cl)ccc1Cl)C(=O)C(F)(F)F` is lower in melting point: 260 to 261 °C for the first, 77 to 80 °C for the second.

First: Nc1nnc(C(F)(F)C(Cl)Cl)s1
Second: C=CCSc1nc(N)n(-c2nnc(-c3ccccc3O)s2)n1
The melting point of the first is lower: 181 to 182 °C for the first, 222 to 223 °C for the second.

Compared with `N#Cc1cc2c(c(N3CCN(CCCCN4C(=O)c5ccccc5S4(=O)=O)CC3)c1)OCCO2`, `CCCN1CCN(CCCOc2ccc3nc(C#N)nc(NCC(C)(C)C)c3c2)CC1` is lower in melting point: 162 to 164 °C for the first, 102 to 104 °C for the second.

First: CCCCCCCCCc1ccc(O)c(C=NO)c1
Second: CCCCCCCCCCCCCCCCCCOCC(CO)NC(C)=O (stereo unspecified)
The melting point of the first is higher: 170 °C for the first, 82 to 85 °C for the second.

Compared with `CCCCCCCCCCCCCCCCCCNC(=O)O[C@H]1CCCO[C@H]1CO` (relative stereo), `CC(C)CC(COCC(N)=O)NC(=O)C1CCCN1C(=O)OCc1ccccc1` (stereo unspecified) is higher in melting point: 85 to 86 °C for the first, 146 to 148 °C for the second.

Compared with `N#Cc1cc(N)c(Cl)cc1C#N`, `OC1(C#Cc2cc(Cl)ccc2Cl)CN2CCC1CC2` (stereo unspecified) is lower in melting point: 206 to 209 °C for the first, 197 to 200 °C for the second.

First: CSc1[nH]c2cccc3c2c1CC1C3CC(C)CN1C (stereo unspecified)
Second: CC(C)(C)c1nc(-c2ccccc2)[nH]c1C(C)(C)C
The melting point of the first is higher: 201 to 202 °C for the first, 156 to 158 °C for the second.

For `C=C(C)Cc1cc(NC(C)=O)c(C)c(C)c1O`, the melting point was 149 to 151 °C.
